Results published in patent EP0303028A1, “Method for preparing single chain urokinase” (GRUPPO LEPETIT S.p.A., priority 1987, dated 1989).
Square brackets hold non-standard residues; d marks the D form. Peptide text beside a SMILES is read from it. * marks the point of attachment. pNA = O=[N+]([O-])c1ccc(N*)cc1; pGlu = O=C1CC[C@@H](C(=O)O)N1

Legend:
Assay in all cases: Kinetics of amidolytic activity on S-2444 (Lineweaver-Burk)
Format in all cases: biochemical
Conditions in all cases: pH 8.8 and 37°C
[1] = target: plasmin-activated RSV-LB6-scu-PA (3F11-scu-PA; recombinant human uPA from RSV-uPA transfected murine LB6 cells) (Homo sapiens, UniProt P00749)
Protocol: (§1) The fibrinolytic assay is carried out by the fibrin plate method (Astrup T., Mullertz S., The fibrin plate method for estimating fibrinolytic activity, Arch Biochem Biophys 1952, 40:346-351). Urokinase reference standard is used to calibrate each assay. Activity is measured in International Units (I.U.) relative to the International Reference Preparation as the primary standard. sc-uPA (cell produced single chain urokinase) fibrinolytic latent activity is determined after activation as follows: plasmin (10 mg) is coupled with CNBr-activated Sepharose (cross-linked agarose) (2.5 ml) using 0.5 M sodium carbonate buffer as the coupling buffer. A 1:10 suspension of plasmin-agarose (0.9 ml) in 0.15 M sodium chloride, 0.05 M sodium phosphate buffer pH 7.4 is mixed with sc-uPA samples (0.1 ml) and gently rotated for 1 h at 20°C. Plasmin-agarose is removed by centrifugation 2 min at 10000 x g and the supernatant tested by the fibrin plate assay. Protein concentrations were measured according to the method of Lowry (Lowry O., Rosebrough H., Parr A., Randall R., Protein measurement with the Folin phenol reagent, J. Biol. Chem. 1951, 193,265-275). Amidolytic assays are performed by measuring the rate of hydrolysis of the synthetic substrate pyro-Glu-Gly-Arg-pNA, S-2444 (Claeson G., Friberger P., Knos M., Eriksson E., Methods for determination of pre-kallikrein in plasma, glandular kallikrein and urokinase, Haemostasis 1978; 7:76-78). Immunoadsorbent-amidolytic assay (IAA) is carried out as described by Corti A., Nolli ML., Cassani G., Differential detection of single-chain and two-chain urokinase type plasminogen activator by a new immunoadsorbent amidolytic assay (IAA), Throm Haemostas 1986, 56:407-10. The assay combines the selectivity of immunoassays with the specificity of enzyme activity assays exploiting both the antigenic and enzymatic properties of the two proteins. tcu-PA and scu-PA are selectively immunoadsorbed on the wells of a microtiter plate coated with the monoclonal antibody 5B4 and tested for enzymatic activity before and after activation by plasmin treatment.
(§2) To determine the kinetic parameters of the amidolytic activity, plasmin-activated u-PA's (4.5 nM) are incubated at different concentrations (0.03 - 0.3 mM) of pyro-Glu-Gly-Arg-p-nitroanilide (S-2444) in 0.1 M Tris Cl (pH 8.8), 50 mM NaCl and 0.1% bovine serum albumin at 37°C. The initial rate of p-nitroaniline release is determined photometrically at 405 nm. The linear increase of absorbance with time for the various concentrations of S-2444 is reported in a Lineweaver-Burk plot from which Km and Vmax are calculated by extrapolation of the curves obtained using a linear regression program.

[2] = target: plasmin-activated BPV-LB6-scu-PA (recombinant human uPA from BPV vector transfected murine LB6 cells) (Homo sapiens, UniProt P00749)
Protocol: as §1, §2

[3] = target: plasmin-activated RSV-CHO-scu-PA (recombinant human uPA from RSV-uPA transfected CHO cells) (Homo sapiens, UniProt P00749)
Protocol: as §1, §2

[4] = target: plasmin-activated A431 scu-PA (from untransformed human A431 cells) (Homo sapiens, UniProt P00749)
Protocol: as §1, §2

[5] = target: plasmin-activated urinary scu-PA (human urine tcu-PA, urokinase) (Homo sapiens, UniProt P00749)
Protocol: as §1, §2

[6] = target: plasmin-activated RSV-A431-scu-PA (recombinant human uPA from RSV-uPA transfected A431 cells) (Homo sapiens, UniProt P00749)
Protocol: as §1, §2

N=C(N)NCCC[C@H](NC(=O)CNC(=O)[C@@H]1CCC(=O)N1)C(=O)Nc1ccc([N+](=O)[O-])cc1 [S-2444, pyro-Glu-Gly-Arg-p-nitroanilide] ([pGlu]-Gly-Arg-pNA)
Km [1]: 69 µM | kcat [1]: 24 s⁻¹ | Km [2]: 78 µM | kcat [2]: 26 s⁻¹ | Km [3]: 76 µM | kcat [3]: 26 s⁻¹ | Km [4]: 72 µM | kcat [4]: 23 s⁻¹ | Km [5]: 80 µM | kcat [5]: 25 s⁻¹ | Km [6]: 76 µM | kcat [6]: 23 s⁻¹
